{"source": "patent US20220288048A1", "about": "“PIMAVANSERIN FOR TREATING SCHIZOPHRENIA OR FOR TREATING PSYCHOSIS SECONDARY TO NEURODEGENERATIVE DISORDERS OR DEPRESSIVE DISORDER” (ACADIA Pharmaceuticals Inc., priority 2019, published 2022)", "system": "adult schizophrenia patients with a persistent inadequate response to their existing antipsychotic therapy", "test": "6-week study of pimavanserin or placebo added to existing antipsychotic treatment: efficacy rating scales", "type": "in vivo, human", "design": "key to Marder Disorg, LSM Change from Baseline at W6 / Marder Uncntl, LSM Change from Baseline at W6 / Marder AnxDep, LSM Change from Baseline at W6: PANSS factor score points; PANSS items rated on a 7-point scale; CGI-I, LSM at W6 (column head: Change from Baseline at W6) / DAI-10, LSM Change from Baseline at W6 / KSS, LSM Change from Baseline at W6 / CDSS, LSM Change from Baseline at W6 / SF36 MH, LSM Change from Baseline at W6: scale not given here", "protocol": "The effect of pimavanserin as an adjunctive treatment in adult schizophrenia patients with a persistent inadequate response (i.e., partial responders) to their existing antipsychotic therapy was tested. 396 patients with moderate-to-severe psychotic symptoms were randomized to receive either pimavanserin or placebo added to existing antipsychotic treatment. […] Dosages of background oral antipsychotics could not be changed within four weeks of screening and dosages of long-acting injectables (LAI) could not be changed within 16 weeks of screening. […] Patients were administered a daily dose of pimavanserin or a placebo for six weeks. The dose started at 20 mg and could be adjusted to 34 mg or 10 mg between weeks 1 and 3. The majority of patients (56%) completed the study at the highest dose level. Patients were evaluated at baseline and on a weekly basis according to the clinical rating scale Positive and Negative Symptom Scale (PANSS). The PANSS is a 30-item, 7-point rating system that was developed to cover a range of negative symptoms not adequately measured by the Brief Psychiatric Rating Scale. It has sections that specifically measure positive symptoms, negative symptoms, and general psychopathology in schizophrenic subjects. The PANSS is widely used in trials of antipsychotic drug treatment, and has been formally validated for such use. A subset of 5 of the PANSS factors, the […] factors, were also evaluated. Other clinical rating scales that were assessed were the Clinical Global Impression Scale (CGI), Personal and Social Performance Scale (PSP), drug attitude inventory (DAI-10), Karolinska Sleepiness Scale (KSS), Calgary Depression Scale for Schizophrenia (CDSS), 36-item Short Form Physical Health evaluation ([…]) and 36-item Short Form Mental Health evaluation […].", "key": {"[1]": {"conditions": "European sites subgroup, Week 6"}, "[2]": {"conditions": "European sites subgroup, Week 6, listed as pimavanserin"}, "[3]": {"conditions": "FAS population, W6, Missing as Worsen"}}, "data": [{"compound": "CC(C)COc1ccc(CNC(=O)N(Cc2ccc(F)cc2)C2CCN(C)CC2)cc1", "note": "[Pimavanserin, N-(4-Fluorophenylmethyl)-N-(1-methylpiperidin-4-yl)-N′-(4-(2-methylpropyloxy)phenylmethyl)carbamide]", "values": [{"measurement": "PANSS Negative Symptoms Subscale, LS Mean Change at Week 6", "setting": "Europe subgroup", "value": "−2.9"}, {"measurement": "PANSS Positive Symptoms Subscale, LS Mean Change at Week 6", "setting": "Europe subgroup", "value": "−5.5"}, {"measurement": "PANSS Negative Symptoms Subscale, Cohen's d Effect Size", "setting": "Europe subgroup, Week 6", "value": 0.296}, {"measurement": "PANSS Negative Symptoms Subscale, LS Mean (SE) Difference", "setting": "Europe subgroup, Week 6", "value": "−1.1"}, {"measurement": "PANSS Positive Symptoms Subscale, Cohen's d Effect Size", "setting": "Europe subgroup, Week 6", "value": 0.195}, {"measurement": "PANSS Positive Symptoms Subscale, LS Mean (SE) Difference", "setting": "Europe subgroup, Week 6", "value": "−0.8 (0.49)"}, {"measurement": "CGI-S score, Change from Baseline to Week 6, Mean (SE)", "setting": "European sites subgroup", "value": "−0.8 (0.07)"}, {"measurement": "CGI-S score, Week 6, Mean (SE)", "setting": "European sites subgroup", "value": "3.8 (0.08)"}, {"measurement": "PANSS total score, Change from Baseline to Week 6, Mean (SE)", "setting": "European sites subgroup", "value": "−16.0 (1.06)"}, {"measurement": "PANSS total score, Week 6, Mean (SE)", "setting": "European sites subgroup", "value": "73.2 (1.18)"}, {"measurement": "CGI-S score, Diff in MMRM LSM (SE), pimavanserin − placebo", "setting": "[1]", "value": "−0.2 (0.09)"}, {"measurement": "CGI-S score, Effect Size (Cohen's d)", "setting": "[1]", "value": 0.266}, {"measurement": "PANSS total score, Diff in MMRM LSM (SE), pimavanserin − placebo", "setting": "[1]", "value": "−3.1 (1.37)"}, {"measurement": "PANSS total score, Effect Size (Cohen's d)", "setting": "[1]", "value": 0.261}, {"measurement": "CGI-S score, Diff in MMRM LSM (SE), pimavanserin − placebo", "setting": "[2]", "value": "−0.2"}, {"measurement": "PANSS total score, Diff in MMRM LSM (SE), pimavanserin − placebo", "setting": "[2]", "value": "−3.1"}, {"measurement": "CDSS, LSM Change from Baseline at W6", "setting": "FAS Population, OC, ANCOVA", "value": "−0.6"}, {"measurement": "DAI-10, LSM Change from Baseline at W6", "setting": "FAS Population, OC, ANCOVA", "value": 0.4}, {"measurement": "PSP, LSM Change from Baseline at W6", "setting": "FAS Population, OC, ANCOVA", "value": 6.9}, {"measurement": "SF36 MH, LSM Change from Baseline at W6", "setting": "FAS Population, OC, ANCOVA", "value": 5.6}, {"measurement": "SF36 PH, LSM Change from Baseline at W6", "setting": "FAS Population, OC, ANCOVA", "value": 0.46}, {"measurement": "CDSS, Effect Size", "setting": "FAS Population, OC, ANCOVA, W6", "value": 0.09}, {"measurement": "CDSS, Treatment group Comparison (PIM-PBO) LSM", "setting": "FAS Population, OC, ANCOVA, W6", "value": "−0.2"}, {"measurement": "DAI-10, Effect Size", "setting": "FAS Population, OC, ANCOVA, W6", "value": "Neg"}, {"measurement": "DAI-10, Treatment group Comparison (PIM-PBO) LSM", "setting": "FAS Population, OC, ANCOVA, W6", "value": "−0.0"}, {"measurement": "PSP, Effect Size", "setting": "FAS Population, OC, ANCOVA, W6", "value": 0.15}, {"measurement": "PSP, Treatment group Comparison (PIM-PBO) LSM", "setting": "FAS Population, OC, ANCOVA, W6", "value": 1.3}, {"measurement": "SF36 MH, Effect Size", "setting": "FAS Population, OC, ANCOVA, W6", "value": 0.11}, {"measurement": "SF36 MH, Treatment group Comparison (PIM-PBO) LSM", "setting": "FAS Population, OC, ANCOVA, W6", "value": 1.0}, {"measurement": "SF36 PH, Effect Size", "setting": "FAS Population, OC, ANCOVA, W6", "value": 0.00}, {"measurement": "SF36 PH, Treatment group Comparison (PIM-PBO) LSM", "setting": "FAS Population, OC, ANCOVA, W6", "value": 0.0}, {"measurement": "CGI-I, LSM at W6 (column head: Change from Baseline at W6)", "setting": "FAS Population, OC, MMRM", "value": 2.9}, {"measurement": "KSS, LSM Change from Baseline at W6", "setting": "FAS Population, OC, MMRM", "value": "−0.5"}, {"measurement": "Marder AnxDep, LSM Change from Baseline at W6", "setting": "FAS Population, OC, MMRM", "value": "−2.3"}, {"measurement": "Marder Disorg, LSM Change from Baseline at W6", "setting": "FAS Population, OC, MMRM", "value": "−2.5"}, {"measurement": "Marder Pos, LSM Change from Baseline at W6", "setting": "FAS Population, OC, MMRM", "value": "−5.5"}, {"measurement": "Marder Uncntl, LSM Change from Baseline at W6", "setting": "FAS Population, OC, MMRM", "value": "−1.7"}, {"measurement": "PANSS GenPsy, LSM Change from Baseline at W6", "setting": "FAS Population, OC, MMRM", "value": "−7.2"}, {"measurement": "PANSS Pos, LSM Change from Baseline at W6", "setting": "FAS Population, OC, MMRM", "value": "−5.4"}, {"measurement": "CGI-I, Effect Size", "setting": "FAS Population, OC, MMRM, W6", "value": 0.08}, {"measurement": "CGI-I, Treatment group Comparison (PIM-PBO) LSM", "setting": "FAS Population, OC, MMRM, W6", "value": "−0.1"}, {"measurement": "KSS, Effect Size", "setting": "FAS Population, OC, MMRM, W6", "value": 0.23}, {"measurement": "KSS, Treatment group Comparison (PIM-PBO) LSM", "setting": "FAS Population, OC, MMRM, W6", "value": "−0.3"}, {"measurement": "Marder AnxDep, Effect Size", "setting": "FAS Population, OC, MMRM, W6", "value": 0.02}, {"measurement": "Marder AnxDep, Treatment group Comparison (PIM-PBO) LSM", "setting": "FAS Population, OC, MMRM, W6", "value": "−0.0"}, {"measurement": "Marder Disorg, Effect Size", "setting": "FAS Population, OC, MMRM, W6", "value": 0.18}, {"measurement": "Marder Disorg, Treatment group Comparison (PIM-PBO) LSM", "setting": "FAS Population, OC, MMRM, W6", "value": "−0.5"}, {"measurement": "Marder Pos, Effect Size", "setting": "FAS Population, OC, MMRM, W6", "value": 0.16}, {"measurement": "Marder Pos, Treatment group Comparison (PIM-PBO) LSM", "setting": "FAS Population, OC, MMRM, W6", "value": "−0.8"}, {"measurement": "Marder Uncntl, Effect Size", "setting": "FAS Population, OC, MMRM, W6", "value": 0.01}, {"measurement": "Marder Uncntl, Treatment group Comparison (PIM-PBO) LSM", "setting": "FAS Population, OC, MMRM, W6", "value": "−0.0"}, {"measurement": "PANSS GenPsy, Effect Size", "setting": "FAS Population, OC, MMRM, W6", "value": 0.12}, {"measurement": "PANSS GenPsy, Treatment group Comparison (PIM-PBO) LSM", "setting": "FAS Population, OC, MMRM, W6", "value": "−0.8"}, {"measurement": "PANSS Pos, Effect Size", "setting": "FAS Population, OC, MMRM, W6", "value": 0.12}, {"measurement": "PANSS Pos, Treatment group Comparison (PIM-PBO) LSM", "setting": "FAS Population, OC, MMRM, W6", "value": "−0.5"}, {"measurement": "CGI-I no Chg or Worsened, (%)", "setting": "[3]", "value": "(34.7) %"}, {"measurement": "CGI-I no Chg or Worsened, Diff in % (PIM − PBO)", "setting": "[3]", "value": 4.1, "unit": "%"}]}]}
